Reference: patent US20220232831A1, “NOVEL NON-CODING HETEROCYCLIC AMINO ACIDS (NCHAA) AND THEIR USE AS HERBICIDES” (Fortephest Ltd., priority 2019, published 2022)

Key:
[1] = tested on: Romaine lettuce (Lactuca sativa L.) plants; test: Post-emergency herbicidal activity on Romaine lettuce plants; assay type: in vivo; conditions: Romaine lettuce at stage 2 to 3 leaves; compound in 0.1% Silwet, up to 0.5%; visual evaluation vs control plants
Procedure: The tests were performed on Romaine lettuce (Lactuca sativa L.) plants at the stage 2 to 3 leaves. The plants were grown on 300 well trays packed with soil, well dimensions 2×2×5 cm. Each compound was dissolved in 0.1% water solution of agronomically acceptable surfactant Silwet to final concentrations ranging from 0.0% (Control) to 0.5%. Two weeks after the treatment the herbicidal effects of the respective test material were visually evaluated by a comparison with the control plants. In addition, the aboveground part of the plant was neatly cut and weighed (wet weight). Each test was performed on 20 to 40 plants. The degree of growth inhibition and damage was evaluated according to the parameters in Table 2. Plant development at 7, 14, and 21 DAA (days after application) were evaluated on a scale of 0 to 100, in which score 0 represents dead plants and score 100 represents healthy plants according to plant vigor, height, and leaf color. Each test included 20 to 40 plants.

[2] = tested on: Seeds of Lettuce R. (Super-Jericho); test: Filter paper bioassay with lettuce seeds (germination and early plant development); assay type: in vivo; conditions: lettuce seeds on filter paper; 1, 0.1, 0.01, 0.001 mM; radicle and shoots assessed after 6 days
Procedure: Seeds of Lettuce R. (Super-Jericho, non-sterilized) were obtained from Ben Shahar Moshe Ltd., 99% purity.
Filter Paper Bioassays with Lettuce Seeds:
The protocol is following Bertin et al. 2009 and Movellan et al. 2014 with specified modifications as described below.
Seeds were placed on Whatman no. 1 filter paper (Whatman, Middlesex, U.K.) in Petri dishes (10 seeds per plate) supplemented with 2.0 ml of water (Control) or with a solution comprising 1 mM, 0.1 mM, 0.01 mM and 0.001 mM of test material. Petri dishes with seeds were placed in a tray at an angle of 45°. The trays were kept in dark for 48 hours and then transferred to the growth chamber (22° C., 0.045 mmol×m−2×s−1 photosynthetic photon flux density; 6/18 dark/light cycle) for additional 4 days. Each experiment was performed at least in two repeats. The development of radicle and shoots of experimental and control plants were visually assessed 6 days after the beginning of the test to determine Minimal Effective Concentration (MEC) of test material. In the context of the invention, MEC is defined as the lowest concentration level of a test material that caused deviation (absence of germination or malformation of radicle and shoots) from the plant's development in the Control group.

Compound	post-emergency herbicidal activity (Activity Index: plant's development vs Control) [1]	Minimal Effective Concentration (MEC) as activity score, seeds germination & early plants development [2]
NC(Cc1c(F)cnc(Br)c1F)C(=O)O (centres unmarked) [Code 655]	Maximal (Less than 15)	Strong (0.1 mM)
CCOCCOCCOC(=O)C(Cc1cc(Cl)sc1Cl)NC(C)=O (centres unmarked) [Code 577]	Strong (From 25 to 50)	Moderate (1 mM)
CCOC(=O)C(N)Cc1cc(Cl)sc1Cl (centres unmarked) [Code 569]	Maximal (Less than 15)	Strong (0.1 mM)
CC1=CC(CC(N)C(=O)O)=C(C)S1(=O)=O (centres unmarked) [Code 564]	Weak (More than 75)	Weak (More than 1 mM)
Nc1cccc(CC(N)C(=O)O)n1 (centres unmarked) [Code 609]	Weak (More than 75)	Weak (More than 1 mM)
NC(Cc1cc(Cl)cnc1Cl)C(=O)O (centres unmarked) [Code 624]	Moderate (From 50 to 75)	Moderate (1 mM)
NC(Cc1ccc[n+](O)c1)C(=O)O (centres unmarked) [Code 668]	Weak (More than 75)	Weak (More than 1 mM)
NC(CP(=O)(O)O)c1ccsc1 (centres unmarked) [Code 563]	Weak (More than 75)	Weak (More than 1 mM)
Nc1cncc(CC(N)C(=O)O)c1 (centres unmarked) [Code 610]	Weak (More than 75)	Weak (More than 1 mM)
COC(=O)C(Cc1ccc(Br)nc1)NC(C)=O (centres unmarked) [Code 672]	Moderate (From 50 to 75)	Strong (0.1 mM)
NC(Cc1ccnc(Br)c1Br)C(=O)O (centres unmarked) [Code 635]	Weak (More than 75)	Weak (More than 1 mM)
CCCOC(=O)C(N)CNS(=O)(=O)c1ccnc(Br)c1 (centres unmarked) [Code 658]	Weak (More than 75)	Weak (More than 1 mM)
N#Cc1cc(C[C@H](N)C(=O)O)cs1 [Code 509]	Maximal (Less than 15)	Strong (0.1 mM)
NC(Cc1ccsc1Cl)C(=O)O (centres unmarked) [Code 516]	Maximal (Less than 15)	Maximal (0.01 mM and less)
NC(Cc1ncsc1Cl)C(=O)O (centres unmarked) [Code 528]	Weak (More than 75)	Moderate (1 mM)
CCOC(=O)C(Cc1ccsc1)NC(C)=O (centres unmarked) [Code 571]	Very Strong (From 15 to 25)	Strong (0.1 mM)
NC(Cc1cnc[nH]c1=O)C(=O)O (centres unmarked) [Code 646]	Weak (More than 75)	Weak (More than 1 mM)
CCOC(=O)C(Cc1csc[n+]1C)NC(C)=O.[Cl-] (centres unmarked) [Code 576]	Maximal (Less than 15)	Moderate (1 mM)
NC(CNS(=O)(=O)c1ccsc1)C(=O)O (centres unmarked) [Code 504]	Weak (More than 75)	Weak (More than 1 mM)
CCOCCOC(=O)C(Cc1nc(Cl)sc1Cl)NC(C)=O (centres unmarked) [Code 555]	Maximal (Less than 15)	Strong (0.1 mM)

Compound	post-emergency herbicidal activity (Activity Index: plant's development vs Control) [1]	Minimal Effective Concentration (MEC) as activity score, seeds germination & early plants development [2]
NC(Cc1ccncn1)C(=O)O (centres unmarked) [Code 625]	Weak (More than 75)	Moderate (1 mM)
CCOCCOCCOC(=O)C(N)Cc1ccc(Br)nc1 (centres unmarked) [Code 675]	Moderate (From 50 to 75)	Strong (0.1 mM)
NC(CNS(=O)(=O)c1ccnc(Br)c1)C(=O)O (centres unmarked) [Code 657]	Weak (More than 75)	Weak (More than 1 mM)
CCCOC(=O)C(N)Cc1ccnc(Br)c1 (centres unmarked) [Code 654]	Strong (From 25 to 50)	Strong (0.1 mM)
NC(Cc1ccoc1)C(=O)O (centres unmarked) [Code 534]	Strong (From 25 to 50)	Moderate (1 mM)
COCCOCCOC(=O)C(N)Cc1ccsc1 (centres unmarked) [Code 570]	Very Strong (From 15 to 25)	Maximal (0.01 mM and less)
NC(Cc1cc(Cl)nc(Cl)c1)C(=O)O (centres unmarked) [Code 628]	Very Strong (From 15 to 25)	Moderate (1 mM)
CCOC(=O)C(Cc1cc(Cl)sc1Cl)NC(C)=O (centres unmarked) [Code 573]	Maximal (Less than 15)	Strong (0.1 mM)
CCOC(=O)C(Cc1cc(Cl)oc1Cl)NC(C)=O (centres unmarked) [Code 574]	Moderate (From 50 to 75)	Strong (0.1 mM)
NC(CNS(=O)(=O)c1cc(Br)sc1Br)C(=O)O (centres unmarked) [Code 558]	Very Strong (From 15 to 25)	Maximal (0.01 mM and less)
NC(CNS(=O)(=O)c1cc(Cl)sc1Cl)C(=O)O (centres unmarked) [Code 514]	Weak (More than 75)	Weak (More than 1 mM)
CCOC(=O)C(Cc1ccnc(OC)n1)NC(C)=O (centres unmarked) [Code 673]	Weak (More than 75)	Weak (More than 1 mM)
NC(Cc1cc(Br)nc(Br)c1)C(=O)O (centres unmarked) [Code 634]	Very Strong (From 15 to 25)	Strong (0.1 mM)
NC(Cc1ccnc(S)c1)C(=O)O (centres unmarked) [Code 613]	Weak (More than 75)	Weak (More than 1 mM)
Nc1cc(Cl)nc(CC(N)C(=O)O)n1 (centres unmarked) [Code 616]	Weak (More than 75)	Weak (More than 1 mM)
NC(CC1CCS(=O)(=O)C1)C(=O)O (centres unmarked) [Code 561]	Weak (More than 75)	Weak (More than 1 mM)
C[n+]1cccc(CC(N)C(=O)O)c1 (centres unmarked) [Code 667]	Weak (More than 75)	Weak (More than 1 mM)
O=CNC(Cc1ccsc1)C(=O)O (centres unmarked) [Code 545]	Weak (More than 75)	Weak (More than 1 mM)
Nc1ccnc(CC(N)C(=O)O)c1 (centres unmarked) [Code 607]	Weak (More than 75)	Weak (More than 1 mM)
NC(CC1CCSC1)C(=O)O (centres unmarked) [Code 562]	Weak (More than 75)	Weak (More than 1 mM)
